Marks after values point to notes of the source that are not given here.
Experiments:
Septoria nodorum = experiment: Test H: wheat glum blotch, preventive spray on wheat seedlings
Method: (the causal agent of wheat glum blotch) and incubated in a saturated atmosphere at 20° C. for 48 h, and then moved to a growth chamber at 22° C. for 5 days, after which disease ratings were made.

[1] = test system: Erysiphe graminis f. sp. tritici; experiment: Test L: wheat powdery mildew, preventive spray on wheat seedlings
[2] = test system: Colletotrichum orbiculare; experiment: Test B: cucumber Colletotrichum anthracnose, preventive spray on cucumber seedlings
Botrytis cinerea = experiment: Test E: tomato botrytis, preventive spray on tomato seedlings
Plasmopara viticola = experiment: Test D: grape downy mildew, spray after inoculation of grape seedlings; assay type: in vivo
Source text: Upon removal, disease ratings were made. […] A dash (-) indicates no test results.

fusarium graminearium = experiment: Test I: wheat head scab, preventive spray on wheat seedlings
Method: (the causal agent of wheat head scab) and incubated in a saturated atmosphere at 20° C. for 72 h, and then moved to a growth chamber at 22° C. for 5 days, after which disease ratings were made.

Septoria tritici = experiment: Test J: wheat leaf blotch, preventive spray on wheat seedlings; assay type: in vivo
Source text: A dash (-) indicates no test results.

Rhizoctonia oryzae = experiment: Test G: turf brown patch, preventive spray on creeping bent grass seedlings
Method: (the causal agent of turf brown patch) and incubated in a saturated atmosphere at 27° C. for 24 h, and then moved to a growth chamber at 27° C. for 5 days, after which disease ratings were made.

Pythium aphanidermatum = experiment: Test A: bluegrass pythium blight, preventive spray on bluegrass seedlings
Phytophthora infestans = experiment: whole plant or invertebrate; assay type: in vivo
[3] = test system: Puccinia recondita f. sp. tritici; experiment: Test K: wheat leaf rust, preventive spray on wheat seedlings
[4] = 40 ppm (marked *), 100 = 100% disease control, 0 = no control
[5] = 200 ppm, 100 = 100% disease control, 0 = no control

Structure (SMILES)	Test H disease control rating (Septoria nodorum; 40 ppm (*))	Test L disease control rating ([1]; 40 ppm (*))	Test B disease control rating ([2]; 40 ppm (*))	Test E disease control rating (Botrytis cinerea; 40 ppm (*))	Test D disease control rating (Plasmopara viticola; 40 ppm (*))	Test I disease control rating (fusarium graminearium; 40 ppm (*))	Test J disease control rating (Septoria tritici; 40 ppm (*))	Test G disease control rating (Rhizoctonia oryzae; 40 ppm (*))	Test A disease control rating (Pythium aphanidermatum; 40 ppm (*))	Test F disease control rating (Phytophthora infestans; 40 ppm (*))	Test K disease control rating ([3]; 40 ppm (*))	Test H disease control rating (Septoria nodorum; [4])	Test L disease control rating [1, 4]	Test B disease control rating [2, 4]	Test E disease control rating (Botrytis cinerea; [4])	Test D disease control rating (Plasmopara viticola; [4])	Test I disease control rating (fusarium graminearium; [4])	Test J disease control rating (Septoria tritici; [4])	Test G disease control rating (Rhizoctonia oryzae; [4])	Test A disease control rating (Pythium aphanidermatum; [4])	other results
CC(C)Cn1c(-c2ccccc2Cl)c(Cl)nc(-n2cccn2)c1=O [compound 193]	89* %	68* %	29* %	100* %	17* %	0* %	99* %	33* %	0* %	0* %	100* %										
CC(C)Cn1c(-c2ccccc2Br)c(Cl)nc(-n2cncn2)c1=O [compound 194]	0* %	0* %	0* %	95* %	0* %	0* %	88* %	0* %	0* %	0* %	92* %										
CC(C)Cn1c(-c2ccccc2Br)c(Cl)nc(-n2cccn2)c1=O [compound 195]	87* %	0* %	26* %	99* %	0* %	0* %	100* %	47* %	0* %	0* %	100* %										
CCc1ccccc1-c1c(Cl)nc(-n2cncn2)c(=O)n1CC(C)C [compound 196]	0* %	0* %	0* %	0* %	0* %	44* %	0* %	0* %	0* %	0* %	0* %										
CCc1ccccc1-c1c(Cl)nc(-n2cccn2)c(=O)n1CC(C)C [compound 197]	0* %	0* %	0* %	41* %	0* %	0* %	23* %	16* %	0* %	0* %	0* %										
CC[C@H](C)Cn1c(-c2ccc(F)cc2Cl)c(Cl)nc(-n2ccc(C)n2)c1=O [compound 262]												100* %	99* %	100* %	100* %	17* %	0* %	100* %	76* %	0* %	Test F disease control rating (Phytophthora infestans; [4]): 39* %; Test K disease control rating [3, 4]: 100* %
CC[C@H](C)Cn1c(-c2ccc(F)cc2Cl)c(Cl)nc(-n2cccn2)c1=O [compound 263]												100* %	98* %	100* %	100* %	0* %	0* %	100* %	84* %	0* %	Test F disease control rating (Phytophthora infestans; [4]): 68* %; Test K disease control rating [3, 4]: 100* %
CC[C@H](C)Cn1c(-c2ccc(F)cc2Cl)c(Cl)nc(N2CCC=N2)c1=O [compound 264]												0* %	83* %	81* %	99* %	0* %	0* %	100* %	0* %	0* %	Test F disease control rating (Phytophthora infestans; [4]): 80* %; Test K disease control rating [3, 4]: 91* %
CCCCn1c(-c2ccc(F)cc2Cl)c(Br)nc(N2CCC=N2)c1=O [compound 286]												0* %	0* %	0* %	97* %	0* %	0* %	37* %	0* %	0* %	Test F disease control rating (Phytophthora infestans; [4]): 41* %; Test K disease control rating [3, 4]: 0* %
O=c1c(-n2cccn2)nc(Cl)c(-c2c(F)cc(F)cc2F)n1-c1ccccc1 [compound 287]												99* %	99* %	99* %	100* %	47* %	97* %	100* %	93* %	56* %	Test F disease control rating (Phytophthora infestans; [4]): 46* %; Test K disease control rating [3, 4]: 99* %
CCC(C)Cn1c(-c2c(F)cccc2F)c(Cl)nc(C(=O)NC)c1=O (centres unmarked) [compound 297]																					Test H disease control rating (Septoria nodorum; [5]): 100%; Test L disease control rating [1, 5]: 97%; Test B disease control rating [2, 5]: 73%; Test E disease control rating (Botrytis cinerea; [5]): 99%; Test D disease control rating (Plasmopara viticola; [5]): 88%; Test I disease control rating (fusarium graminearium; [5]): 75%; Test J disease control rating (Septoria tritici; [5]): 99%; Test G disease control rating (Rhizoctonia oryzae; [5]): 78%; Test A disease control rating (Pythium aphanidermatum; [5]): 0%; Test F disease control rating (Phytophthora infestans; [5]): 92%; Test K disease control rating [3, 5]: 98%
CCCNC(=O)c1nc(Cl)c(-c2c(F)cccc2F)n(CC(C)CC)c1=O (centres unmarked) [compound 299]																					Test H disease control rating (Septoria nodorum; [5]): 99%; Test L disease control rating [1, 5]: 95%; Test B disease control rating [2, 5]: 40%; Test E disease control rating (Botrytis cinerea; [5]): 99%; Test D disease control rating (Plasmopara viticola; [5]): 40%; Test I disease control rating (fusarium graminearium; [5]): 100%; Test J disease control rating (Septoria tritici; [5]): 100%; Test G disease control rating (Rhizoctonia oryzae; [5]): 31%; Test A disease control rating (Pythium aphanidermatum; [5]): 69%; Test F disease control rating (Phytophthora infestans; [5]): 90%; Test K disease control rating [3, 5]: 100%
CC(C)c1c(Cl)nc(-n2cccn2)c(=O)n1Cc1ccccc1 [compound 304]																					Test H disease control rating (Septoria nodorum; [5]): 0%; Test L disease control rating [1, 5]: 46%; Test B disease control rating [2, 5]: 0%; Test E disease control rating (Botrytis cinerea; [5]): 99%; Test D disease control rating (Plasmopara viticola; [5]): 0%; Test I disease control rating (fusarium graminearium; [5]): 0%; Test J disease control rating (Septoria tritici; [5]): 100%; Test G disease control rating (Rhizoctonia oryzae; [5]): 31%; Test A disease control rating (Pythium aphanidermatum; [5]): 0%; Test F disease control rating (Phytophthora infestans; [5]): 49%; Test K disease control rating [3, 5]: 100%

Reference: patent US20080194585A1, “Fungicidal Pyrazine Derivatives” (priority 2005, published 2008)
